{"source": "patent US20220281930A1", "about": "“COMPOSITIONS AND METHODS FOR THE TREATMENT OF PATHOLOGICAL PAIN AND ITCH” (DUKE UNIVERSITY, priority 2019, published 2022)", "key": {"[1]": {"test_system": "motor function and coordination of mice", "assay": "Rotarod assay", "assay_type": "in vivo, mouse", "conditions": "10, 30 mg/kg i.p.; one-time exception high-dose day 7", "experimental": "For assessment in rotarod (RR), all animals received training prior to experiments; mice were placed on the RR apparatus set in an accelerating rotational speed mode (3-30 rpm, 300 s max) per trial. Following training, the average time to fall from the rotating cylinder over three trials was recorded as baseline latency (4-40 rpm, 300 s max/trial). Mice were injected daily with either vehicle or drug compounds before RR tests. Latency to fall was measured (4-40 rpm, 300 s max/trial (inter-trial interval is at least 15 min). The average latency to fall from the rod was recorded for each animal.\nWith these beneficial effects of KP on pathologic pain and itch, whether KP had undesirable effects on the CNS in terms of sedation, impairment of motor stamina, balance and coordination was assessed. […] Conditioned place preference was used to test whether KP (30 mg/kg; i.p.) can trigger brain reward mechanisms (Jackson et al., 2019, Psychopharmacology, 236(12):3593-3599; Sora et al., 1998, Proc Natl Acad Sci USA 95:7699-7704), and there were no such effects (FIG. 4F). […] In pathologic pain models, KP acts centrally to mediate analgesic effects, and thus relies on KCC2 chloride extrusion."}, "KCC2 mRNA": {"test_system": "KCC2 mRNA", "assay": "KCC2 mRNA RT-qPCR in primary human cortical neurons", "assay_type": "cell-based", "conditions": "KP 50, 100, 400 nM, 48 h", "experimental": "(§1) The neuron-enriched cultures were established from fetal cortical specimens at 15-20 weeks of gestation. The protocols for tissue processing complied with all federal and institutional guidelines. The cultures were plated on PEI (polyethyleneimine solution) substrate and maintained in Neurobasal media supplemented with B27 as previously described (Pelsman et al., 2003, International journal of developmental neuroscience 21:117-124; Yeo et al., 2013, Proc Natl Acad Sci USA 110:4315-4320).\nFor RT-qPCR, the cell pellets were collected after treatments with vehicle (0.1% DMSO) or KP (50, 100, and 400 nM) for 48 h starting at day 6 in vitro.\nTotal RNA was isolated from cultured cell samples using Directzol RNA miniprep kit (ZymoResearch). The protocol includes DNAse digestion to exclude genomic DNA from preparations. Total RNA (1 μg) was reverse transcribed using oligo primers (dT) and SuperScriptIII first-strand synthesis kit (Invitrogen). Gene expression was assessed by quantitative real-time PCR using 2×SYBR Green Master Mix (Qiagen) and a three-step cycling protocol (anneal at 60° C./elongate at 72° C., denature at 95° C.). […] The amount of target messenger RNA (mRNA) in the experimental group relative to that in the control was determined from the resulting fluorescence and threshold values (Ct) using the ΔΔCt method. βIII-tubulin was used as housekeeping gene. […]"}, "KCC2": {"test_system": "KCC2", "assay": "Immuno-cytochemistry morphometry of primary human cortical neurons, KCC2", "assay_type": "cell-based", "conditions": "400 nM KP", "experimental": "as §1\nFor immunostaining, the cultures were treated for 2-4 days with vehicle or 400 nM KP, fixed with 4% PFA at day 10, and processed for double-staining with anti-KCC2 and anti-synaptophysin or anti-NeuN (see Table 1).\nThe 0.34 micrometer confocal slices through entire cell layers at different optical fields (n=17-28 for each group) of the fixated cultures were acquired using a Zeiss LSM700 confocal microscope.\nImage Z-stacks were analyzed using Imaris 9.2.1 software. Optical density intensity sum values for each stack/channel were divided by corresponding data volumes and the resulting values were normalized to the number of specifically labeled cells within each stack. There were no significant differences in the number of cells between vehicle and KP-treated groups."}, "[2]": {"test_system": "beta-cat binding to KCC2 promoter", "assay": "ChIP with anti-beta-cat antibody at KCC2 promoter", "assay_type": "cell-based, rat", "conditions": "KP-treated vs vehicle", "experimental": "ChIP assay was carried out as described previously (Yeo et al., 2009, J Neurosci 29:14652-14662; Yeo et al., 2013, Proc Natl Acad Sci USA 110:4315-4320). Primary cortical neurons (0.7×10^6) were used for each ChIP experiment. Cells were crosslinked with 1% formaldehyde for 30 min, washed twice with cold PBS, resuspended in lysis buffer [1% SDS, 10 mm EDTA, and 50 mm Tris-HCl, pH 8.0, with protease inhibitor cocktail (Roche)], and sonicated for 15 s pulses. The lysates were clarified by centrifugation at 10,000 rpm for 10 min at 4° C. in a microcentrifuge. One-tenth of the total lysate was used as input control of genomic DNA. Supernatants were collected and diluted in buffer (1% Triton X-100, 2 mm EDTA, 150 mm NaCl, 20 mm Tris-HCl, pH 8.0, and protease inhibitor cocktail) followed by immunoclearing with 1 mg of salmon sperm DNA, 10 ml of rabbit IgG, and 20 ml of protein A/G-Sepharose (Santa Cruz Biotechnology) for 1 h at 4° C. Immunoprecipitation was performed overnight at 4° C. with 2 mg of each specific antibody. Precipitates were washed sequentially for 10 min each in TSE1 buffer (0.1% SDS, 1% Triton X-100, 2 mm EDTA, 150 mm NaCl, and 20 mm Tris-HCl, pH 8.0), TSE2 (TSE1 with 500 mm NaCl), and TSE3 (0.25 m LiCl, 1% NP-40, 1% deoxycholate, 1 mm EDTA, and 10 mm Tris-HCl, pH 8.0). […]"}}}
{"smiles": "O=C1Cc2c([nH]c3ccc(Br)cc23)-c2ccccc2N1", "note": "[kenpaullone, 9-bromo-7,12-dihydro-indolo [3,2-d] [1]benzazepin-6(5H)-one]", "values": [{"measurement": "elapsed time on the rotarod", "setting": "[1]", "result": "does not affect motor stamina and coordination"}, {"measurement": "KCC2 mRNA", "setting": "KCC2 mRNA", "result": "increases in a dose-dependent manner"}, {"measurement": "increased KCC2 expression relative to vehicle", "setting": "KCC2", "result": 62, "unit": "%"}, {"measurement": "binding of beta-cat to TCF site", "setting": "[2]", "result": "significantly increases binding"}]}
